According to patent publication US10131652B2, “Pyrimidinyloxy benzene derivatives as herbicides” (E. I. DU PONT DE NEMOURS AND COMPANY, priority 2014, dated 2018):

Experiments:
Format in all cases: in vivo
[1] = system: Italian ryegrass (Lolium multiflorum); test: Test B pre-/postemergence plant response
Summary of the method: (§1)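 Visual injury rating, 0 (no effect) to 100 (complete control), vs untreated controls after ~10 d greenhouse. Pre: directed soil spray after planting in loam/sand. Post: plants 2–10 cm, 1–2 leaf stage. Compound in non-phytotoxic solvent plus surfactant.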

[2] = system: barnyardgrass (Echinochloa crus-galli); test: Test B pre-/postemergence plant response
Summary of the method: as §1

corn (Zea mays) = test: Test B pre-/postemergence plant response
Summary of the method: as §1

[3] = system: giant foxtail (Setaria faberii); test: Test B pre-/postemergence plant response
Summary of the method: as §1

kochia (Kochia scoparia) = test: Test B pre-/postemergence plant response
Summary of the method: as §1

[4] = system: pigweed (Amaranthus retroflexus); test: Test B pre-/postemergence plant response
Summary of the method: as §1

[5] = system: ragweed (common ragweed, Ambrosia elatior); test: Test B pre-/postemergence plant response
Summary of the method: as §1

[6] = system: wheat (Triticum aestivum); test: Test B pre-/postemergence plant response
Summary of the method: as §1

[7] = system: blackgrass (Alopecurus myosuroides); test: Test B postemergence plant response
Summary of the method: (§2)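 Plants grown in pots of loam soil–sand blend were sprayed postemergence with formulated test chemicals at 2 to 10 cm height, one- to two-leaf stage. After about 10 days in a greenhouse, injury was visually rated against untreated controls on a 0 to 100 scale (0 no effect, 100 complete control).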

[8] = system: galium (catchweed bedstraw, Galium aparine); test: Test B postemergence plant response
Summary of the method: as §2

[9] = system: barnyardgrass (Echinochloa crus-galli); test: Test C flooded paddy test plant response; conditions: Flood, 250 g ai/ha; scale of 0 to 100 where 0 is no effect and 100 is complete control; 13 to 15 days
Summary of the method: (§3)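 Visual injury ratings (0, no effect; 100, complete control) were assigned after 13 to 15 days in a greenhouse, comparing treated plants with controls. Compounds had been added straight into paddy water over 2-leaf-stage plants flooded to 3 cm.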

[10] = system: ducksalad (Heteranthera limosa); test: Test C flooded paddy test plant response; conditions: Flood, 250 g ai/ha; scale of 0 to 100 where 0 is no effect and 100 is complete control; 13 to 15 days
Summary of the method: as §3

rice (Oryza sativa) = test: Test C flooded paddy test plant response; conditions: Flood, 250 g ai/ha; scale of 0 to 100 where 0 is no effect and 100 is complete control; 13 to 15 days
Summary of the method: as §3

[11] = system: small-flower umbrella sedge (Cyperus difformis); test: Test C flooded paddy test plant response; conditions: Flood, 250 g ai/ha; scale of 0 to 100 where 0 is no effect and 100 is complete control; 13 to 15 days
Summary of the method: as §3

[12] = 31 g ai/ha, Preemergence, 0 to 100 scale where 0 is no effect and 100 is complete control
[13] = 125 g ai/ha, postemergence, 0 to 100 scale, 0 no effect, 100 complete control
[14] = Preemergence, 125 g ai/ha, 0 to 100 scale (0 no effect, 100 complete control)
[15] = 31 g ai/ha, Postemergence, 0 to 100 scale, 0 no effect, 100 complete control
[16] = Postemergence, 1000 g ai/ha, 0 to 100 scale (0 no effect, 100 complete control)
[17] = Preemergence, 1000 g ai/ha, 0 to 100 scale (0 no effect, 100 complete control)
[18] = Postemergence, 31 g ai/ha, 0 to 100 scale (0 no effect, 100 complete control)

Row | Structure (SMILES) | Plant response rating, Ryegrass, Italian [1, 12] | Plant response rating, Ryegrass, Italian [1, 13] | Ryegrass, Italian plant response rating [1, 14] | Plant response rating, Barnyardgrass [2, 12] | Plant response rating, Barnyardgrass [2, 13] | Barnyardgrass plant response rating [2, 14] | Plant response rating, Corn (corn (Zea mays); [13]) | Plant response rating, Foxtail, Giant [3, 12] | Plant response rating, Foxtail, Giant [3, 13] | Foxtail, Giant plant response rating [3, 14] | Plant response rating, Kochia (kochia (Kochia scoparia); [12]) | Plant response rating, Kochia (kochia (Kochia scoparia); [13]) | Kochia plant response rating (kochia (Kochia scoparia); [14]) | Plant response rating, Pigweed [4, 12] | Plant response rating, Pigweed [4, 13] | Pigweed plant response rating [4, 14] | Barnyardgrass plant response rating [9] | Ducksalad plant response rating [10] | Rice plant response rating (rice (Oryza sativa)) | Sedge, Umbrella plant response rating [11] | further results
1 | FC(c1cc(-c2ccccc2Oc2ncc(Cl)cn2)no1)C(F)(F)F (centres unmarked) [Compound 133] | 0 | 30 | 50 | 30 | 60 | 70 | 30 | 70 | 50 | 90 | 50 | 90 | 90 | 90 | 100 | 100 | 40 | 80 | 40 | 80 | Plant response rating, Barnyardgrass [2, 15]: 20; Plant response rating, Corn (corn (Zea mays); [15]): 10; Plant response rating, Foxtail, Giant [3, 15]: 20; Plant response rating, Ragweed [5, 12]: 0; Plant response rating, Ragweed [5, 13]: 30; Ragweed plant response rating [5, 14]: 10; Plant response rating, Wheat [6, 13]: 10; Plant response rating, Blackgrass [7, 15]: 30; Plant response rating, Blackgrass [7, 13]: 70; Plant response rating, Galium [8, 13]: 100
2 | FC(F)c1cc(-c2ccccc2Oc2ncc(Cl)cn2)co1 [Compound 141] | 0 | 0 | 0 | 0 | 0 | 0 | 30 | 0 | 0 | 0 | 0 | 0 | 0 | 0 | 20 | 0 | 0 | 30 | 0 | 0 | Plant response rating, Barnyardgrass [2, 15]: 0; Plant response rating, Corn (corn (Zea mays); [15]): 0; Plant response rating, Foxtail, Giant [3, 15]: 0; Plant response rating, Ragweed [5, 12]: 0; Plant response rating, Ragweed [5, 13]: 0; Ragweed plant response rating [5, 14]: 0; Plant response rating, Wheat [6, 13]: 0; Plant response rating, Blackgrass [7, 15]: 0; Plant response rating, Blackgrass [7, 13]: 0; Plant response rating, Galium [8, 13]: 0
3 | Cc1cnc(Oc2ccccc2-c2cc(Cl)sn2)nc1 [Compound 194] | – | – | – | – | – | – | – | – | – | – | – | – | – | – | – | – | 0 | 80 | 0 | 0 | Plant response rating, Ryegrass, Italian [1, 16]: 50; Plant response rating, Ryegrass, Italian [1, 17]: 50; Plant response rating, Barnyardgrass [2, 16]: 100; Plant response rating, Barnyardgrass [2, 17]: 100; Plant response rating, Corn (corn (Zea mays); [16]): 60; Plant response rating, Foxtail, Giant [3, 16]: 90; Plant response rating, Foxtail, Giant [3, 17]: 100; Plant response rating, Kochia (kochia (Kochia scoparia); [16]): 100; Plant response rating, Kochia (kochia (Kochia scoparia); [17]): 100; Plant response rating, Pigweed [4, 16]: 90; Plant response rating, Pigweed [4, 17]: 100; Plant response rating, Ragweed [5, 16]: 80; Plant response rating, Ragweed [5, 17]: 30; Plant response rating, Wheat [6, 16]: 20; Plant response rating, Blackgrass [7, 16]: 90; Plant response rating, Galium [8, 16]: 100
4 | N#Cc1ccnc(-c2ccccc2Oc2ncc(Cl)cn2)c1 [Compound 188] | 0 | 0 | 0 | 0 | 20 | 20 | 30 | 0 | 20 | 40 | 0 | 90 | 30 | 0 | 60 | 100 | 0 | 30 | 0 | 0 | Plant response rating, Ryegrass, Italian [1, 18]: 0; Plant response rating, Barnyardgrass [2, 18]: 0; Plant response rating, Corn (corn (Zea mays); [18]): 0; Plant response rating, Foxtail, Giant [3, 18]: 0; Plant response rating, Kochia (kochia (Kochia scoparia); [18]): 0; Plant response rating, Pigweed [4, 18]: 0; Plant response rating, Ragweed [5, 12]: 0; Plant response rating, Ragweed [5, 13]: 20; Plant response rating, Ragweed [5, 18]: 0; Ragweed plant response rating [5, 14]: 0; Plant response rating, Wheat [6, 13]: 20; Plant response rating, Wheat [6, 18]: 0; Plant response rating, Blackgrass [7, 13]: 20; Plant response rating, Blackgrass [7, 18]: 0; Plant response rating, Galium [8, 13]: 50; Plant response rating, Galium [8, 18]: 0
5 | Cc1ccnc(-c2ccccc2Oc2ncc(Cl)cn2)c1 [Compound 187] | 0 | 0 | 0 | 0 | 0 | 0 | 0 | 0 | 0 | 0 | 0 | 0 | 0 | 0 | 0 | 0 | 0 | 50 | 0 | 0 | Plant response rating, Ryegrass, Italian [1, 18]: 0; Plant response rating, Barnyardgrass [2, 18]: 0; Plant response rating, Corn (corn (Zea mays); [18]): 0; Plant response rating, Foxtail, Giant [3, 18]: 0; Plant response rating, Kochia (kochia (Kochia scoparia); [18]): 0; Plant response rating, Pigweed [4, 18]: 0; Plant response rating, Ragweed [5, 12]: 0; Plant response rating, Ragweed [5, 13]: 0; Plant response rating, Ragweed [5, 18]: 0; Ragweed plant response rating [5, 14]: 0; Plant response rating, Wheat [6, 13]: 0; Plant response rating, Wheat [6, 18]: 0; Plant response rating, Blackgrass [7, 13]: 0; Plant response rating, Blackgrass [7, 18]: 0; Plant response rating, Galium [8, 13]: 0; Plant response rating, Galium [8, 18]: 0
